From patent US10011568B2, “Cyclohexyl pyridine derivative” (priority 2014, dated 2018)

Key:
[1] = target: human NK1 receptor (Homo sapiens (Human), UniProt P25103); experiment: Inhibitory effect on human NK1 receptor (substance P-induced increase in intracellular calcium concentration); type: cell-based; settings: substance P 1 μM, compound 0.1 μM; read-out: SPRR (%), Substance P-Response Remaining (intracellular calcium concentration)
Experimental: Inhibitory Effect on Human NK1 Receptor
(1) Preparation of Human NK1 Receptor-Expressing Cells
Human NK1 receptor-expressing cells were prepared by the same methods as those described in 2-3 of Test Example 1.
(2) Study on Inhibitory Effect on Increase in Intracellular Calcium Concentration
The human NK1 receptor-expressing cells were washed with 300 μL/well of a washing solution (20 mM HEPES/Hank's Balanced Salt Solution (HBSS) pH 7.3). A fluorescent calcium indicator (Fluo-4 Direct Calcium Assay Kit, Life Technologies, containing 0.42 mM probenecid and 0.1% bovine serum albumin, prepared according to the protocol of the product) was added to the wells at 150 μL/well, and the plate was incubated at 37° C. for 30 minutes in an incubator. Then. DMSO solutions of a test compound, which were prepared at an 80-time higher concentration using 100% dimethyl sulfoxide (DMSO), were added to the wells at 2.5 μL/well (final concentrations of 0.1, 1 and 10 μM), and the solutions were mixed. Then, the plate was further incubated at […] for 30 minutes in an incubator. After 30 minutes, the intracellular calcium concentrations were measured immediately.
The intracellular calcium concentrations were each measured as a fluorescent signal using FDSS (registered trademark) 7000 (Hamamatsu Photonics). A substance P (Peptide Institute. Inc.) solution which was prepared at 0.4 μM or 4 μM using an assay buffer (20 mM HEPES/Hank's Balanced Salt Solution (HBSS) pH 7.3, containing 0.1% bovine serum albumin) was added automatically to each well at 50 μL/well (final concentration of 0.1 or 1 μM) 10 seconds after starting reading, and the fluorescent signal was measured up to 120 seconds.
The intracellular calcium concentration (%) of the cells to which a test compound was added was calculated by the equation below, where the fluorescent signal of the group to which the vehicle (DMSO) was added was regarded as 100%, and the fluorescent signal before the addition of substance P was regarded as 0%. Intracellular calcium concentration (%)—(Fluorescent signal of test compound addition group)/(Fluorescent signal of vehicle addition group)×100
The intracellular calcium concentration (%) calculated was regarded as the remaining agonist activity of substance P (Substance P-Response Remaining: SPRR). In the table, Ex. No. means the Example number. SPRR (%) is the value obtained when the concentration of substance P was 1 μM and the concentration of the compound was 0.1 μM.

[2] = system: cisplatin-induced retching and vomiting; experiment: Effect on cisplatin-induced acute and delayed emetic response; type: in vivo; settings: ferret, 0.01 or 0.1 mg/kg iv
Experimental: The vertical axes show the number of retching and vomiting (Retches+Vomits) (the mean+standard error of 3 examples of control group, the mean+standard error of 3 examples of the group intravenously administered with 0.01 mg/kg, and the mean+standard error of 3 examples of the group intravenously administered with 0.1 mg/kg).
Effect on Cisplatin-Induced Acute and Delayed Emetic Response
The test compound solution was prepared by dissolving the test compound in a vehicle (a mixture of 50% N,N-dimetlylacetamide (Wako Pure Chemical Industries). 30% propylene glycol (Wako Pure Chemical Industries), 4% 2-hydroxypropy-β-cyclodextrin (Wako Pure Chemical Industries) and 16% distilled water). The vehicle only was administered to the control group.
Under anesthesia with isoflurane, 0.01 mg/kg or 0.1 mg/kg of the test compound was intravenously administered to a male ferret (Marshall BioResources Japan) from the jugular vein. Cisplatin in saline, which was heated to 40-50° C., was intraperitoneally administered at 5 mg/kg one hour after the drug administration.

[3] = target: hERG channel (Homo sapiens (Human), UniProt Q12809); experiment: Evaluation of hERG current (whole-cell patch clamp); type: cell-based; settings: 10 μM, application for 10 minutes, HEK293 cells, n = 3, average ± standard error
Experimental: Evaluation of hERG Current
A dimethyl sulfoxide (DMSO) solution of the test compound with a concentration 1000 times higher than the evaluation concentration (10 μM) was prepared, and a solution with a final application concentration was prepared by diluting the solution. The hERG current was measured by a whole-cell method using a patch clamp system, where a cover glass on which hERG channel-expressing human embryonic kidney (HEK) 293 cells were seeded was placed on a perfusion bath and a perfusion solution was caused to flow. The change in the hERG channel-derived current caused by a pulse protocol (holding potential of −80 mV, depolarization pulse of +20 mV for 1.9 seconds, repolarization pulse of −50 mV for 2 seconds, stimulated at intervals of 15 seconds) of data acquisition/analysis software, pCLAMP9 (Axon instruments. Inc.) was measured. The measurement conditions were a flow rate of about 1.5 mL/min and a temperature of about 33° C. Two wave forms immediately before applying the test compound and two wave forms immediately after the application for 10 minutes were analyzed, and the statistical analysis was performed. The value before the application of the test compound was regarded as 100%, and the change rate based on the value was determined.
In the table, Ex. No. means the Example number, and the change rate is the average±the standard error.

human NK1 receptor, sequence (P25103 whole entry): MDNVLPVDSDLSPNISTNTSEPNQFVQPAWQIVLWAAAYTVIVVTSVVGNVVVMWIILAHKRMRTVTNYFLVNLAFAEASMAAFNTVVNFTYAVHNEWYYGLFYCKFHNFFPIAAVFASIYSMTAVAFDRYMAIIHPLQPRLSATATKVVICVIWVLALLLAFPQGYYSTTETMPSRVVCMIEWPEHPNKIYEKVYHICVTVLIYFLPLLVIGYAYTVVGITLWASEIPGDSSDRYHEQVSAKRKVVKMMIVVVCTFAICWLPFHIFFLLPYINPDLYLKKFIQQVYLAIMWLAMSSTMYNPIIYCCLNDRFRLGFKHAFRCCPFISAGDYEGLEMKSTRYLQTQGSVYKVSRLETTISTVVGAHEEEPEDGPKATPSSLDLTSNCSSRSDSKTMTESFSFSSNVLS
hERG channel, sequence (Q12809 whole entry): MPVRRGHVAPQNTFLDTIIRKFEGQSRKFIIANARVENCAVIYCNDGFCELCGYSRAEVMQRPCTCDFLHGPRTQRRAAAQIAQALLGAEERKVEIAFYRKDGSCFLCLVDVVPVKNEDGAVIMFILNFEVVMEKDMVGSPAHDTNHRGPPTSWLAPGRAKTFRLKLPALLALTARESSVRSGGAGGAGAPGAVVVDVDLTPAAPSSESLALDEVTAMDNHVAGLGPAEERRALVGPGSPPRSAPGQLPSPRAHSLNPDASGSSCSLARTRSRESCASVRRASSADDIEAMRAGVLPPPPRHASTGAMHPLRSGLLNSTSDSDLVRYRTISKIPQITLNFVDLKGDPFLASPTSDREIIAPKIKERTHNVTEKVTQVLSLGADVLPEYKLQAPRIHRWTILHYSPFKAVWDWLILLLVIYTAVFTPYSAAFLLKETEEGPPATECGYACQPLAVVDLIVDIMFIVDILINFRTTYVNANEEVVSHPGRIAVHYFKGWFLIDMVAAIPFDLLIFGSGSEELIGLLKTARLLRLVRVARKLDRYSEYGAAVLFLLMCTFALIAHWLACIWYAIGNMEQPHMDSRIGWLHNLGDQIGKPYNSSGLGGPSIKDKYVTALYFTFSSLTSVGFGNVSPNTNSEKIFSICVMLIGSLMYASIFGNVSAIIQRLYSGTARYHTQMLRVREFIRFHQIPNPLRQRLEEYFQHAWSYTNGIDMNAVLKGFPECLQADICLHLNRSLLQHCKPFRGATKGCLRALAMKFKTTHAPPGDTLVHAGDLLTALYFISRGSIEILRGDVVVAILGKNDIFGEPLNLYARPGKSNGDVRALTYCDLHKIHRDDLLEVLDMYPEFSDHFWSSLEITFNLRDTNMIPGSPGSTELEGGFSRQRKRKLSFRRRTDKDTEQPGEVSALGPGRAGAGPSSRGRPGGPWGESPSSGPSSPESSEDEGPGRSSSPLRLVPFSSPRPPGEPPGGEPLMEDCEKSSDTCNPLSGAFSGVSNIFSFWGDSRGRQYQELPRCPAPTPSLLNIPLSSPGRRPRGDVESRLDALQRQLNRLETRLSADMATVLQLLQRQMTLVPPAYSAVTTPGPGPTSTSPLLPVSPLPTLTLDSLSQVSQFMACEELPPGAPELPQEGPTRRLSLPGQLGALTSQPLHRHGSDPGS

| SMILES | remaining activity at 0.1 µM [1] | other results |
| --- | --- | --- |
| Cc1cc(F)ccc1-c1cc([C@H]2CC[C@H](CC(=O)O)CC2)nc(C#N)c1N(C)C(=O)C(C)(C)c1cc(C(F)(F)F)cc(C(F)(F)F)c1 [Example 20, trans-{4-[5-{[2-(3,5-Bistrifluoromethylphenyl)-2-methylpropionyl]methylamino}-6-cyano--4-(4-fluoro-2-methylphenyl)-pyridin-2-yl]cyclohexyl}acetic acid] | 2.8% |  |
| Cc1cc(F)ccc1-c1cc(C2(C)CCCC(CC(=O)O)C2)ncc1N(C)C(=O)C(C)(C)c1cc(C(F)(F)F)cc(C(F)(F)F)c1 (centres unmarked) [Example 4, {3-[5-{[2-(3,5-Bistrifluoromethylphenyl)-2-methylpropionyl]methylamino}-4-(4-fluoro-2-methylphenyl)pyridin-2-yl]-3-methylcyclohexyl}acetic Acid] | 57% |  |
| Cc1cc(F)ccc1-c1cc(C2CCC3(CC2)CC3C(=O)O)ncc1N(C)C(=O)C(C)(C)c1cc(C(F)(F)F)cc(C(F)(F)F)c1 (centres unmarked) [Example 7, 6-[5-{[2-(3,5-Bistrifluoromethylphenyl)-2-methylpropionyl]methylamino}-4-(4-fluoro-2-methylphenyl)pyridin-2-yl]spiro[2.5]octane-1-carboxylic Acid] | 9.4% |  |
| Cc1ccccc1-c1cc(C2CCC(CC(=O)O)CC2)nc(C#N)c1N(C)C(=O)C(C)(C)c1cc(C(F)(F)F)cc(C(F)(F)F)c1 (centres unmarked) [Example 16, [4-(5-{[2-(3,5-Bistrifluoromethylphenyl)-2-methylpropionyl]methylamino}-6-cyano-4-ortho-tolylpyridin-2-yl)cyclohexyl]acetic Acid] | 37% |  |
| Cc1cc(F)ccc1-c1cc(C2CCC(CC(=O)O)CC2)nc(C#N)c1N(C)C(=O)C(C)(C)c1cc(C(F)(F)F)cc(C(F)(F)F)c1 (centres unmarked) [Example 8, {4-[5-{[2-(3,5-Bistrifluoromethylphenyl)-2-methylpropionyl]methylamino}-6-cyano-4-(4-fluoro-2-methylphenyl)pyridin-2-yl]cyclohexyl}acetic Acid] | 31% |  |
| Cc1cc(F)ccc1-c1cc([C@H]2CC[C@@H](CC(=O)O)CC2)nc(C#N)c1N(C)C(=O)C(C)(C)c1cc(C(F)(F)F)cc(C(F)(F)F)c1 [Example 21, cis-{4-[5-{[2-(3,5-bistrifluoromethylphenyl)-2-methylpropionyl]methylamino}-6-cyano-4-(4-fluoro-2-methylphenyl)pyridin-2-yl]cyclohexyl}acetic acid] | 36% |  |
| Cc1cc(F)ccc1-c1cc(C2CCC(C(C)C(=O)O)CC2)ncc1N(C)C(=O)C(C)(C)c1cc(C(F)(F)F)cc(C(F)(F)F)c1 (centres unmarked) [Example 10, 2-{4-[5-{[2-(3,5-Bistrifluoromethylphenyl)-2-methylpropionyl]methylamino}-4-(4-fluoro-2-methylphenyl)pyridin-2-yl]cyclohexyl}propionic Acid] | 8.6% |  |

Second part, led by results:

| remaining activity at 0.1 µM [1] | SMILES | other results |
| --- | --- | --- |
| 20% | Cc1cc(F)ccc1-c1cc(C2CCC(C(=O)O)CC2)ncc1N(C)C(=O)C(C)(C)c1cc(C(F)(F)F)cc(C(F)(F)F)c1 (centres unmarked) [Example 1, 4-[5-{[2-(3,5-Bistrifluoromethylphenyl)-2-methylpropionyl]methylamino}-4-(4-fluoro-2-methylphenyl)pyridin-2-yl]cyclohexanecarboxylic Acid] |  |
| 5.1% | Cc1cc(F)ccc1-c1cc([C@H]2CC[C@H](CC(=O)O)CC2)ncc1N(C)C(=O)C(C)(C)c1cc(C(F)(F)F)cc(C(F)(F)F)c1 [Example 13, trans-{4-[5-{[2-(3,5-Bistrifluoromethylphenyl)-2-methylpropionyl]methylamino}-4-(4-fluoro-2-methylphenyl)pyridin-2-yl]cyclohexyl}acetic acid] | number of retching and vomiting, delayed phase ([2]; 24 hours to 72 hours after cisplatin 5 mg/kg ip): the inhibition of the number of retching and vomiting was observed; number of retching and vomiting, acute phase ([2]; up to 24 hours after cisplatin 5 mg/kg ip): the inhibition of the number of retching and vomiting was observed; hERG current change rate % (value before application = 100%) [3]: 81.1 ± 5.6% |
| 5.4% | Cc1cc(F)ccc1-c1cc([C@H]2CC[C@H](C(C)(C)C(=O)O)CC2)ncc1N(C)C(=O)C(C)(C)c1cc(C(F)(F)F)cc(C(F)(F)F)c1 [Example 11, trans-2-{4-[5-{[2-(3,5-Bistrifluoromethylphenyl)-2-methylpropionyl]methylamino}-4-(4-fluoro-2-methylphenyl)pyridin-2-yl]cyclohexyl}-2-methylpropionic Acid] |  |
| 36% | Cc1cc(F)ccc1-c1cc(C2CCCC(CC(=O)O)C2)ncc1N(C)C(=O)C(C)(C)c1cc(C(F)(F)F)cc(C(F)(F)F)c1 (centres unmarked) [Example 3, {3-[5-{[2-(3,5-Bistrifluoromethylphenyl)-2-methylpropionyl]methylamino}-4-(4-fluoro-2-methylphenyl)pyridin-2-yl]cyclohexyl}acetic Acid] |  |
| 42% | Cc1ccccc1-c1cc(C2CCC(CC(=O)O)CC2)ncc1N(C)C(=O)C(C)(C)c1cc(C(F)(F)F)cc(C(F)(F)F)c1 (centres unmarked) [Example 9, {4-[5-{[2-(3,5-Bistrifluoromethylphenyl)-2-methylpropionyl]methylamino}-4-ortho-tolylpyridine-yl]-cyclohexyl}acetic Acid] |  |
| 22% | Cc1cc(F)ccc1-c1cc([C@H]2CC[C@@H](CC(=O)O)CC2)ncc1N(C)C(=O)C(C)(C)c1cc(C(F)(F)F)cc(C(F)(F)F)c1 [Example 14, cis-{4-[5-{[2-(3,5-bistrifluoromethylphenyl)-2-methylpropionyl]methylamino}-4-(4-fluoro-2-methylphenyl)pyridin-2-yl]cyclohexyl}acetic acid] | hERG current change rate % (value before application = 100%) [3]: 80.3 ± 3.9% |
